# From patent US10130693B2, “Peptides, combination of peptides and scaffolds for use in immunotherapeutic treatment of various cancers” (Immatics Biotechnologies GmbH, priority 2015, dated 2018)
# System: HLA-A*24
# Test: MHC binding assay, UV-ligand exchange with beta2m ELISA (exchange yield), HLA-A*24
# Design: species or system human
# Conditions: binding to HLA-A*24, UV-ligand exchange
# Excerpt: Candidate peptides for T cell based therapies according to the present invention were further tested for their MHC binding capacity (affinity). The individual peptide-MHC complexes were produced by UV-ligand exchange, where a UV-sensitive peptide is cleaved upon UV-irradiation, and exchanged with the peptide of interest as analyzed. Only peptide candidates that can effectively bind and stabilize the peptide-receptive MHC molecules prevent dissociation of the MHC complexes. To determine the yield of the exchange reaction, an ELISA was performed based on the detection of the light chain (β2m) of stabilized MHC complexes. The assay was performed as generally described in Rodenko et al. (Rodenko et al., 2006).
# 96 well MAXISorp plates (NUNC) were coated over night with 2 ug/ml streptavidin in PBS at room temperature, washed 4× and blocked for 1 h at 37° C. in 2% BSA containing blocking buffer. […] Peptide-MHC monomers of the UV-exchange reaction were diluted 100 fold in blocking buffer. Samples were incubated for 1 h at 37° C., washed four times, incubated with 2 ug/ml HRP conjugated anti-β2m for 1h at 37° C., washed again and detected with TMB solution that is stopped with […]. Absorption was measured at 450 nm. Candidate peptides that show a high exchange yield (preferably higher than 50%, most preferred higher than 75%) are generally preferred for a generation and production of antibodies or fragments thereof, and/or T cell receptors or fragments thereof, as they show sufficient avidity to the MHC molecules and prevent dissociation of the MHC complexes.
row,Substance,"Peptide exchange (MHC class I binding score, peptide exchange yield)"
1,254 (KYLESSATF; listed as Homo sapiens) [compound 254],+++ (50%-75% = +++)
2,134 (AYIPTPIYF; listed as Homo sapiens) [compound 134],+++ (50%-75% = +++)
3,131 (EYLDRIGQLFF; listed as Homo sapiens) [compound 131],+++ (50%-75% = +++)
4,243 (SYLELANTL; listed as Homo sapiens) [compound 243],+++ (50%-75% = +++)
5,260 (VYMNVMTRL; listed as Homo sapiens) [compound 260],++++ (>=75% = ++++)
6,216 (FYVNVKEQF; listed as Homo sapiens) [compound 216],+++ (50%-75% = +++)
7,213 (SYAPPSEDLFL; listed as Homo sapiens) [compound 213],++ (20%-49% = ++)
8,285 (VYVGDALLHAI; listed as Homo sapiens) [compound 285],+++ (50%-75% = +++)
9,200 (VFIHHLPQF; listed as Homo sapiens) [compound 200],+++ (50%-75% = +++)
10,252 (AFGQETNVPLNNF; listed as Homo sapiens) [compound 252],++++ (>=75% = ++++)
11,193 (LYLENNAQTQF; listed as Homo sapiens) [compound 193],+++ (50%-75% = +++)
12,116 (AYVIAVHLF; listed as Homo sapiens) [compound 116],++++ (>=75% = ++++)
13,370 (RFIGIPNQF; listed as Homo sapiens) [compound 370],+++ (50%-75% = +++)
14,255 (VYQKIILKF; listed as Homo sapiens) [compound 255],+++ (50%-75% = +++)
15,246 (KYLSVQLTL; listed as Homo sapiens) [compound 246],++ (20%-49% = ++)
16,152 (KFFDDLGDELLF; listed as Homo sapiens) [compound 152],++ (20%-49% = ++)
17,220 (SYSEIKDFL; listed as Homo sapiens) [compound 220],++++ (>=75% = ++++)
18,230 (TYGMVMVTF; listed as Homo sapiens) [compound 230],+++ (50%-75% = +++)
19,298 (AYKSEVVYF; listed as Homo sapiens) [compound 298],++++ (>=75% = ++++)

row,Substance,"Peptide exchange (MHC class I binding score, peptide exchange yield)"
1,136 (IYPEWPVVFF; listed as Homo sapiens) [compound 136],+++ (50%-75% = +++)
2,368 (KYQNVKHNL; listed as Homo sapiens) [compound 368],+++ (50%-75% = +++)
3,281 (NYSPGLVSLIL; listed as Homo sapiens) [compound 281],+++ (50%-75% = +++)
4,265 (SYLNEAFSF; listed as Homo sapiens) [compound 265],++++ (>=75% = ++++)
5,118 (KYLNSVQYI; listed as Homo sapiens) [compound 118],+++ (50%-75% = +++)
6,212 (SYAPPSEDLF; listed as Homo sapiens) [compound 212],++ (20%-49% = ++)
7,348 (IYLEHTESI; listed as Homo sapiens) [compound 348],+++ (50%-75% = +++)
8,315 (FYIPHVPVSF; listed as Homo sapiens) [compound 315],+++ (50%-75% = +++)
9,385 (QYIEELQKF; listed as Homo sapiens) [compound 385],+++ (50%-75% = +++)
10,264 (LYTETRLQF; listed as Homo sapiens) [compound 264],++++ (>=75% = ++++)
11,274 (KQLDIANYELF; listed as Homo sapiens) [compound 274],++++ (>=75% = ++++)
12,272 (RYVFPLPYL; listed as Homo sapiens) [compound 272],++++ (>=75% = ++++)
13,201 (GYNPNRVFF; listed as Homo sapiens) [compound 201],+++ (50%-75% = +++)
14,262 (VYSSQFETI; listed as Homo sapiens) [compound 262],++++ (>=75% = ++++)
15,240 (YYFFVQEKI; listed as Homo sapiens) [compound 240],+++ (50%-75% = +++)
16,299 (KYQYVLNEF; listed as Homo sapiens) [compound 299],+++ (50%-75% = +++)
17,275 (KYGTLDVTF; listed as Homo sapiens) [compound 275],++++ (>=75% = ++++)
18,248 (AFPTFSVQL; listed as Homo sapiens) [compound 248],++++ (>=75% = ++++)
19,342 (NYAFLHRTL; listed as Homo sapiens) [compound 342],+++ (50%-75% = +++)

row,Substance,"Peptide exchange (MHC class I binding score, peptide exchange yield)"
1,276 (QYLDVLHAL; listed as Homo sapiens) [compound 276],++++ (>=75% = ++++)
2,357 (QFITSTNTF; listed as Homo sapiens) [compound 357],++++ (>=75% = ++++)
3,384 (RYFDVGLHNF; listed as Homo sapiens) [compound 384],+++ (50%-75% = +++)
4,223 (TFITQSPLL; listed as Homo sapiens) [compound 223],++++ (>=75% = ++++)
5,124 (TYKDYVDLF; listed as Homo sapiens) [compound 124],+ (<20% = +)
6,287 (IYNPNLLTASKF; listed as Homo sapiens) [compound 287],+++ (50%-75% = +++)
7,250 (KYPDIASPTF; listed as Homo sapiens) [compound 250],++ (20%-49% = ++)
8,148 (SYGTVSQIF; listed as Homo sapiens) [compound 148],++++ (>=75% = ++++)
9,373 (GYISNGELF; listed as Homo sapiens) [compound 373],+++ (50%-75% = +++)
10,165 (EYFTPLLSGQF; listed as Homo sapiens) [compound 165],+++ (50%-75% = +++)
11,355 (IYVTGGHLF; listed as Homo sapiens) [compound 355],+++ (50%-75% = +++)
12,145 (VYALKVRTI; listed as Homo sapiens) [compound 145],+++ (50%-75% = +++)
13,295 (SYLVIHERI; listed as Homo sapiens) [compound 295],+++ (50%-75% = +++)
14,304 (EYNEVANLF; listed as Homo sapiens) [compound 304],+++ (50%-75% = +++)
15,388 (IYGEKTYAF; listed as Homo sapiens) [compound 388],+++ (50%-75% = +++)
16,305 (NYENKQYLF; listed as Homo sapiens) [compound 305],++++ (>=75% = ++++)
17,317 (VFDTSIAQLF; listed as Homo sapiens) [compound 317],+++ (50%-75% = +++)
18,169 (NYITGKGDVF; listed as Homo sapiens) [compound 169],+++ (50%-75% = +++)
19,343 (NYLGGTSTI; listed as Homo sapiens) [compound 343],+++ (50%-75% = +++)
